Results on 13 compounds are retold here after patent US8889671B2, “Compounds and methods for treating bacterial infections” (AstraZeneca AB, priority 2013, dated 2014).

Converted amounts (≈) assume the structure as drawn. Like-named read-outs stand apart in the source and are kept apart here.

In one experiment the test system is Neisseria gonorrhoeae. The experiment in a line: MIC against 100 N. gonorrhoeae isolates, CLSI reference agar dilution. The experiment is classed as cell-based. Particulars: all 100 N. gonorrhoeae isolates. In general terms: In agar dilution the substance is mixed into plates at graded concentrations.
Experiment [1] relates to variants of S. aureus and S. pyogenes ARC838. Briefly: Susceptibility of Example 5 serial-passage variants to comparators. The class given is cell-based, Staphylococcus aureus; Streptococcus pyogenes. The settings on record: variants after twenty passages with Example 5.
Experiment [2] relates to 7 S. aureus strains and 1 strain of Streptococcus pyogenes. Briefly: Minimum bactericidal concentration (MBC). Particulars: 7 S. aureus strains and 1 S. pyogenes strain. The class given is cell-based, Staphylococcus aureus; Streptococcus pyogenes.
A further experiment concerns Klebsiella pneumoniae. The experiment in a line: Susceptibility testing (MIC) Assay 2, broth microdilution. The class given is cell-based. Particulars: clinical isolate, mucoid, read-out: Kpn MIC. A general note: Dilution methods test growth across graded concentrations, often in twofold steps.
A further experiment concerns Pseudomonas aeruginosa. Described as above. The class given is cell-based. The settings on record: PAO1, read-out: Pae MIC.
A further experiment has as its system Escherichia coli. Described as above. The experiment is classed as cell-based. The settings on record: K12, read-out: Eco MIC.
The test system of a further experiment is Haemophilus influenzae. The description is as above. The class given is cell-based. Particulars: ATCC51907, Haemophilus influenzae, ATCC 51907, in vivo strain, read-out: Hin MIC.
The subject of a further experiment is Streptococcus pneumoniae. The experiment in a line: Susceptibility testing (MIC) Assay 1, broth microdilution. The experiment is classed as cell-based.
The subject of another experiment is Streptococcus pyogenes. Described as above. The class given is cell-based. The settings on record: Streptococcus pyogenes, Streptococcus pyrgenes, in vivo strain; read-out: Spy MIC.
For another experiment, the system named is Staphylococcus aureus. The experiment is described as above. The experiment is classed as cell-based. Particulars: Staphylococcus aureus.
The target of experiment [3] is Escherichia coli DNA gyrase A/B tetramer (Escherichia coli (strain K12), UniProt P0AES4+P0AES6). The experiment in a line: DNA gyrase supercoiling activity fluorescence polarisation assay. The class given is biochemical. Particulars: Eco Gyr FP Mean IC50, E. coli DNA gyrase supercoiling, 0.3 mM ATP. The gist of the method:
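IC50 derived by nonlinear regression from BODIPY-FL fluorescence anisotropy, read 60 min after quenching with labelled triplex-forming probe (pH 3.5). Reaction: 5 nM gyrase tetramer, 130 micrograms/mL relaxed plasmid, 0.3 mM ATP, 4 mM MgCl2, pH 7.5, typically 30 min at ambient temperature, 5-10 compound concentrations.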
In general terms: Polarisation of emitted light reports the rotation of a fluorescent probe.

Where [4] appears, read: Neisseria gonorrhoeae, read-out: MIC50.
Where [5] appears, read: Neisseria gonorrhoeae, read-out: MIC90.
[6] abbreviates: in vivo strain (footnote b), read-out: Spn(b) MIC.
Setting [7] is: in vivo strain (footnote c), read-out: Spn(c) MIC.
Setting [8] is: Staphylococcus aureus in vivo strain, MSQS, read-out: Sau(d) MIC.
The mark [9] stands for this setting: in vivo strain, MRQR, read-out: Sau(e) MIC.

In general, MIC50 refers to an inhibitory concentration at the 50% level, which refers to growth in some studies and to a panel of isolates in others. What is called MIC90 is an inhibitory concentration at the 90% level, which refers to growth in some studies and to a panel of isolates in others. Take `CC[C@H]1OC(=O)[C@H](C)[C@@H](O[C@H]2C[C@@](C)(OC)[C@@H](O)[C@H](C)O2)[C@H](C)[C@@H](O[C@@H]2O[C@H](C)C[C@H](N(C)C)[C@H]2O)[C@](C)(O)C[C@@H](C)CN(C)[C@H](C)[C@@H](O)[C@]1(C)O` [azithromycin, reference compound]: in the experiment on Neisseria gonorrhoeae (setting [4]), the MIC50 was 0.25 µg/mL (≈ 0.334 µM). Also, in the experiment on Neisseria gonorrhoeae (setting [5]), the MIC90 stood at 0.5 µg/mL (≈ 0.668 µM).

`CO/N=C(\C(=O)N[C@@H]1C(=O)N2C(C(=O)O)=C(CSc3nc(=O)c(O)nn3C)CS[C@H]12)c1csc(N)n1` [ceftriaxone, reference compound] came in with an MIC50 in the experiment on Neisseria gonorrhoeae of 0.015 µg/mL (≈ 0.027 µM).

On to `C[C@H]1COc2c(N3CCN(C)CC3)c(F)cc3c(=O)c(C(=O)O)cn1c23` [levofloxacin], for which, in experiment [1], the “change in susceptibility of Example 5-selected variants” value is on record as no more than 4 fold. The “minimum bactericidal concentrations (MBCs) relative to the MIC” value in experiment [2] was no more than 2 fold.

In the case of `CN[C@H](CC(C)C)C(=O)N[C@H]1C(=O)N[C@@H](CC(N)=O)C(=O)N[C@H]2C(=O)N[C@H]3C(=O)N[C@H](C(=O)N[C@H](C(=O)O)c4cc(O)cc(O)c4-c4cc3ccc4O)[C@H](O)c3ccc(c(Cl)c3)Oc3cc2cc(c3O[C@@H]2O[C@H](CO)[C@@H](O)[C@H](O)[C@H]2O[C@H]2C[C@](C)(N)[C@H](O)[C@H](C)O2)Oc2ccc(cc2Cl)[C@H]1O` [vancomycin], the “change in susceptibility of Example 5-selected variants” value in experiment [1] was no more than 4 fold. In addition, the “minimum bactericidal concentrations (MBCs) relative to the MIC” value in experiment [2] is recorded as no more than 2 fold.

Consider `CO/N=C(\C(=O)N[C@@H]1C(=O)N2C(C(=O)O)=C(CSc3nc(=O)c(O)nn3C)CS[C@H]12)c1csc(N)n1` [ceftriazone, reference compound], for which the MIC90 in the experiment with Neisseria gonorrhoeae came out at 0.06 µg/mL (≈ 0.108 µM).

`CN(C)[C@@H]1C(=O)C(C(N)=O)=C(O)[C@@]2(O)C(=O)C3=C(O)c4c(O)cccc4[C@@](C)(O)[C@H]3C[C@@H]12` [tetracycline, reference compound]: in the experiment on Neisseria gonorrhoeae, the MIC50 was 1 µg/mL (≈ 2.25 µM) and the MIC90 is 2 µg/mL (≈ 4.5 µM).

In the case of `CC1(C)S[C@@H]2[C@H](NC(=O)Cc3ccccc3)C(=O)N2[C@H]1C(=O)O` [penicillin, reference compound], the MIC50 in the experiment with Neisseria gonorrhoeae (setting [4]) came out at 2 µg/mL (≈ 5.98 µM). Besides, the MIC90 with Neisseria gonorrhoeae (setting [5]) was greater than 2 µg/mL.

`C=CC1=C(C(=O)O)N2C(=O)[C@@H](NC(=O)/C(=N\OCC(=O)O)c3csc(N)n3)[C@H]2SC1` [cefixime, reference compound]: in the experiment with Neisseria gonorrhoeae, the MIC50 worked out at 0.03 µg/mL (≈ 0.0662 µM) and the MIC90 is 0.06 µg/mL (≈ 0.132 µM).

For `CC(=O)NC[C@H]1CN(c2ccc(N3CCOCC3)c(F)c2)C(=O)O1` [linezolid], the “change in susceptibility of Example 5-selected variants” value in experiment [1] is recorded as no more than 4 fold.

For orientation: IC50 means the concentration that gives 50% inhibition. The low end stands for inhibition by little substance, the high end for a need for much substance. As for `C[C@@H]1CN2c3c(cc4c(N5C(=O)OC[C@H]5Cc5ccccc5)noc4c3F)CC3(C(=O)NC(=O)NC3=O)[C@H]2[C@H](C)O1` [Example 10, (2R,4S,4aS)-8-[(4R)-4-Benzyl-2-oxo-1,3-oxazolidin-3-yl]-11-fluoro-2,4-dimethyl-1,2,4,4a-tetrahydro-2′H,6H-spiro[1,4-oxazino[4,3-a][1,2]oxazolo[4,5-g]quinoline-5,5′-pyrimidine]-2′,4′,6′(1′H,3′H)-trione], the MIC in the experiment with Klebsiella pneumoniae was greater than 200 µM; in the experiment with Pseudomonas aeruginosa it was greater than 200 µM; in the experiment on Escherichia coli, greater than 200 µM; in the experiment on Haemophilus influenzae it was 25 µM (≈ 14.1 µg/mL); with Streptococcus pneumoniae (setting [6]), 50 µM (≈ 28.2 µg/mL); in the experiment on Streptococcus pneumoniae (setting [7]) it was 50 µM (≈ 28.2 µg/mL). In addition, the MIC with Streptococcus pyogenes came to 25 µM (≈ 14.1 µg/mL); in the experiment with Staphylococcus aureus (setting [8]), 6.2 µM (≈ 3.49 µg/mL); in the experiment on Staphylococcus aureus (setting [9]), 12 µM (≈ 6.76 µg/mL); with Staphylococcus aureus (serum, read-out: Sau(f) MIC), 200 µM (≈ 113 µg/mL). In addition, it took 6700 nM to reach half-maximal inhibition in [3] (IC50).

Regarding `C[C@@H]1CN2c3c(cc4c(N5C(=O)OC[C@@H]5C5CC5)noc4c3F)CC3(C(=O)NC(=O)NC3=O)[C@H]2[C@H](C)O1` [Example 52], the MIC in the experiment with Klebsiella pneumoniae is 200 µM (≈ 103 µg/mL); with Pseudomonas aeruginosa, greater than 200 µM; in the experiment with Escherichia coli, 25 µM (≈ 12.8 µg/mL); with Haemophilus influenzae it was 0.78 µM (≈ 0.401 µg/mL); in the experiment on Streptococcus pneumoniae (setting [6]), 1.6 µM (≈ 0.822 µg/mL); with Streptococcus pneumoniae (setting [7]), 1.6 µM (≈ 0.822 µg/mL). Besides, the MIC in the experiment with Streptococcus pyogenes came out at 0.78 µM (≈ 0.401 µg/mL); with Staphylococcus aureus (setting [8]), 0.78 µM (≈ 0.401 µg/mL); in the experiment with Staphylococcus aureus (setting [9]), 1.6 µM (≈ 0.822 µg/mL); in the experiment with Staphylococcus aureus (serum, read-out: Sau(f) MIC) it was 3.1 µM (≈ 1.59 µg/mL). This compound also had an IC50 in [3] of 900 nM.

As for `CSC[C@H]1COC(=O)N1c1noc2c(F)c3c(cc12)CC1(C(=O)NC(=O)NC1=O)[C@H]1[C@H](C)O[C@H](C)CN31` [Example 45], the MIC with Klebsiella pneumoniae is 200 µM (≈ 107 µg/mL); in the experiment on Pseudomonas aeruginosa, greater than 200 µM; with Escherichia coli it was 25 µM (≈ 13.3 µg/mL); in the experiment with Haemophilus influenzae it was 0.39 µM (≈ 0.208 µg/mL); in the experiment on Streptococcus pneumoniae (setting [6]), 0.39 µM (≈ 0.208 µg/mL); in the experiment with Streptococcus pneumoniae (setting [7]) it was 0.55 µM (≈ 0.293 µg/mL). For the same compound, the MIC in the experiment with Streptococcus pyogenes was 0.39 µM (≈ 0.208 µg/mL); in the experiment with Staphylococcus aureus (setting [8]), less than 0.2 µM; in the experiment on Staphylococcus aureus (setting [9]), 0.39 µM (≈ 0.208 µg/mL); in the experiment on Staphylococcus aureus (serum, read-out: Sau(f) MIC) it was 0.78 µM (≈ 0.416 µg/mL). For the same compound, inhibition in experiment [3] was half-maximal at 260 nM (IC50).

Turning to `C[C@@H]1CN2c3c(cc4c(N5C(=O)OC[C@@H]5[C@H](O)CO)noc4c3F)CC3(C(=O)NC(=O)NC3=O)[C@H]2[C@H](C)O1` [Example 73], the MIC in the experiment with Klebsiella pneumoniae was greater than 200 µM; in the experiment on Pseudomonas aeruginosa it was greater than 200 µM; with Escherichia coli, greater than 200 µM; with Haemophilus influenzae, 6.2 µM (≈ 3.31 µg/mL); in the experiment on Streptococcus pneumoniae (setting [6]), 0.78 µM (≈ 0.416 µg/mL); in the experiment on Streptococcus pneumoniae (setting [7]) it was 3.1 µM (≈ 1.65 µg/mL). The MIC in the experiment with Streptococcus pyogenes worked out at 0.78 µM (≈ 0.416 µg/mL); with Staphylococcus aureus (setting [8]), 25 µM (≈ 13.3 µg/mL); in the experiment on Staphylococcus aureus (setting [9]), 100 µM (≈ 53.3 µg/mL); with Staphylococcus aureus (serum, read-out: Sau(f) MIC) it was 25 µM (≈ 13.3 µg/mL). This compound returned a half-maximal inhibitory concentration (IC50) in experiment [3] of 340 nM.
